Measurements taken from patent US20190225650A1, “PEPTIDOMIMETIC MACROCYCLES AND USE THEREOF IN REGULATING HIF1ALPHA” (AILERON THERAPEUTICS, INC., priority 2013, published 2019).
Bridge positions count the residues as written; N and C are the ends. Square brackets hold non-standard residues; d marks the D form. Peptide text beside a SMILES is read from it. R8 = C=CCCCCCC[C@@](C)(N)C(=O)O; S5 = C=CCCC[C@](C)(N)C(=O)O; Nle = CCCC[C@H](N)C(=O)O

What was measured:
HRE-bla ME-180 cells [1] = assay: Reporter gene assay (HRE-bla ME-180 HIF reporter, GeneBLAzer); assay type: cell-based, human; conditions: for EC50: 24 hour normoxia
Method in brief: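 A FRET β-lactamase readout of HIF transcription was used. After compound treatment in 0.3% DMSO/media under normoxic conditions, 20 μl of 6× LiveBLAzer-FRET B/G (CCF4-AM) substrate was added. Plates sat 3 hr at room temperature in the dark and were read at 409 Ex/460Em and 409Ex/530Em on a Synergy 2. Inhibition was compared against DMSO vehicle controls, with chetomin as positive control.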

[2] = target: T1, flag-tagged HIF1α (AA 786-826) / His6-tagged p300 (AA 323-423) complex (Homo sapiens, UniProt Q09472); assay: HIF1α p300 displacement assay (TR FRET, +CHAPS); assay type: binding; conditions: read-out: IC50 (nM) (HIF1α_p300 Displacement + CHAPS)
T1 construct: His6-tagged p300 (AA 323-423); made in house; host or cells: E. coli (pETDuet vector)
Method in brief: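 The co-expressed flag-HIF1α (786-826)/His6-p300 (323-423) complex, purified from E. coli with 0.1 mM ZnSO4, was used at 300 nM final with competitor peptides for 1 h at room temperature. Buffer was 150 mM NaCl, 20 mM HEPES pH 7.4, 7.5 mM CHAPS and 1 mM DTT. Anti-Flag-K (0.5 μM) and anti-His-D2 (4 nM) were then added for 2 h, and IC50s were fitted from the TR-FRET ratio.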

HRE-bla ME-180 cells [3] = assay: Cell proliferation assay (viability, MTT, 1% FBS); assay type: cell-based, human
Method in brief: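 ME-180 cells (2×10^4/well) in Opti-MEM with 1% FBS were pretreated 16 h under normoxia (21% O2), vehicle 0.5% DMSO final. Incubation then continued under normoxia or hypoxia (1% O2); viable cells quantified by MTT-type CellTiter 96 assay.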

| EC50 (HRE-bla ME-180 cells [1]) | IC50 [2] | SMILES | 18 h Avg % max inhibition at top conc (HIF Rptr-24 hrs normoxia) (μM) (HRE-bla ME-180 cells [1]) | Viability 1% FBS AVG (MTT V3-24 hr Normoxia) (μM) (HRE-bla ME-180 cells [3]) |
| --- | --- | --- | --- | --- |
| > 30 µM | 200 to 400 nM | CCCC[C@H](NC(=O)[C@H](CCC(=O)O)NC(=O)[C@]1(C)CCCC=CCCCCCC[C@@](C)(NC(=O)[C@H](CCC(=O)O)NC(=O)[C@H](CC(=O)O)NC(=O)[C@@H](NC(=O)[C@H](CC(N)=O)NC(=O)[C@@H](NC(=O)[C@]2(C)CCCC=CCCCCCC[C@@](C)(NC(=O)[C@H](CCC(=O)O)NC(=O)CNC(=O)[C@H](CCC(N)=O)NC(=O)[C@H](CC(C)C)NC(=O)[C@H](CC(C)C)NC(C)=O)C(=O)N[C@@H](CC(C)C)C(=O)N[C@@H](CC(C)C)C(=O)N[C@@H](CCCNC(=N)N)C(=O)N[C@@H](C)C(=O)N[C@@H](CC(C)C)C(=O)N[C@@H](CC(=O)O)C(=O)N2)C(C)C)[C@@H](C)CC)C(=O)N[C@@H](C(C)C)C(=O)N[C@@H](CC(C)C)C(=O)N[C@@H](CCCC)C(=O)N[C@@H](CO)C(=O)N[C@@H](CC(C)C)C(=O)N[C@@H](C(C)C)C(=O)N1)C(=O)N[C@@H](C)C(=O)N[C@@H](CC(C)C)C(N)=O [SP-373] (Ac-LLQGE[R8]LLRALD[S5]VNIDE[R8]VL[Nle]SLV[S5]E[Nle]AL-NH2; staple 6-13, 19-26) | +++ (≤25 but <50: +++) | ++++ (≥30: ++++) |
| ≤ 5 µM | > 700 nM | CCCC[C@H](NC(=O)[C@H](Cc1ccccc1)NC(=O)[C@@H](NC(=O)[C@H](C)NC(=O)[C@H](CCC(N)=O)NC(=O)[C@H](CC(=O)O)NC(=O)[C@@H](NC(=O)[C@H](Cc1ccccc1)NC(C)=O)[C@@H](C)CC)C(C)C)C(=O)N[C@@]1(C)CCCC=CCCC[C@@](C)(C(=O)N[C@@H](CCCC)C(=O)N[C@@H](C)C(=O)N[C@@H](CC(C)C)C(=O)N[C@@H](CC(C)C)C(N)=O)NC(=O)[C@H]([C@@H](C)CC)NC(=O)[C@H](C(C)C)NC(=O)[C@H](CO)NC1=O [SP-252] (Ac-FIDQAVF[Nle][S5]SVI[S5][Nle]ALL-NH2; staple 9-13) | ++++ (≥50: ++++) | ++ (≤5 but <15: ++) |
| > 30 µM | > 700 nM | CCCC[C@@H]1NC(=O)[C@H](CC(C)C)NC(=O)[C@H](C(C)C)NC(=O)[C@@](C)(NC(=O)[C@H](CCC(=O)O)NC(=O)[C@H](CC(=O)O)NC(=O)[C@@H](NC(=O)[C@H](Cc2ccccc2)NC(C)=O)[C@@H](C)CC)CCCC=CCCCC2(CCCC=CCCC[C@](C)(C(=O)N[C@@H](CCCNC(=N)N)C(=O)N[C@@H](C)C(=O)N[C@@H](CC(C)C)C(N)=O)NC(=O)[C@H]([C@@H](C)CC)NC(=O)[C@H](C(C)C)NC(=O)[C@H](CC(C)C)NC2=O)NC1=O (stereo partly shown) [SP-213] | + (<10: +) | ++++ (≥30: ++++) |
| > 30 µM | 200 to 400 nM | CCCC[C@H](NC(=O)[C@H](CCC(=O)O)NC(=O)[C@]1(C)CCCC=CCCCCCC[C@@](C)(NC(=O)[C@H](CCC(=O)O)NC(=O)[C@H](CC(=O)O)NC(=O)[C@@H](NC(=O)[C@H](CC(N)=O)NC(=O)[C@@H](NC(=O)[C@]2(C)CCCC=CCCCCCC[C@@](C)(NC(=O)[C@H](CCC(=O)O)NC(C)=O)C(=O)N[C@@H](CC(C)C)C(=O)N[C@@H](CC(C)C)C(=O)N[C@@H](CCCNC(=N)N)C(=O)N[C@@H](C)C(=O)N[C@@H](CC(C)C)C(=O)N[C@@H](CC(=O)O)C(=O)N2)C(C)C)[C@@H](C)CC)C(=O)N[C@@H](C(C)C)C(=O)N[C@@H](CC(C)C)C(=O)N[C@@H](CCCC)C(=O)N[C@@H](CO)C(=O)N[C@@H](CC(C)C)C(=O)N[C@@H](C(C)C)C(=O)N1)C(N)=O [SP-358] (Ac-E[R8]LLRALD[S5]VNIDE[R8]VL[Nle]SLV[S5]E[Nle]-NH2; staple 2-9, 15-22) | + (<10: +) | ++++ (≥30: ++++) |
| ≤ 5 µM | > 700 nM | CCCC[C@H](NC(=O)[C@H](Cc1ccccc1)NC(=O)[C@@H](NC(=O)[C@H](C)NC(=O)[C@H](CCC(N)=O)NC(=O)[C@H](CC(=O)O)NC(=O)[C@@H](NC(=O)[C@H](Cc1ccccc1)NC(C)=O)[C@@H](C)CC)C(C)C)C(=O)N[C@@]1(C)CCCC=CCCC[C@@](C)(C(=O)N[C@@H](CCCNC(=N)N)C(=O)N[C@@H](C)C(=O)N[C@@H](CC(C)C)C(=O)N[C@@H](CC(C)C)C(N)=O)NC(=O)[C@H]([C@@H](C)CC)NC(=O)[C@H](C(C)C)NC(=O)[C@H](CC(C)C)NC1=O [SP-256] (Ac-FIDQAVF[Nle][S5]LVI[S5]RALL-NH2; staple 9-13) | ++++ (≥50: ++++) | ++ (≤5 but <15: ++) |
| ≤ 5 µM | > 700 nM | CCCC[C@H](NC(=O)[C@H](Cc1ccccc1)NC(=O)[C@@H](NC(=O)[C@H](CCC(=O)O)NC(=O)[C@H](CCC(=O)O)NC(=O)[C@H](CC(=O)O)NC(C)=O)C(C)C)C(=O)N[C@@]1(C)CCCC=CCCC[C@@](C)(C(=O)N[C@@H](CCCC)C(=O)N[C@@H](C)C(=O)N[C@@H](CC(C)C)C(=O)N[C@@H](CC(C)C)C(N)=O)NC(=O)[C@H]([C@@H](C)CC)NC(=O)[C@H](C(C)C)NC(=O)[C@H](CC(C)C)NC1=O [SP-244] (Ac-DEEVF[Nle][S5]LVI[S5][Nle]ALL-NH2; staple 7-11) | ++++ (≥50: ++++) | ++++ (≥30: ++++) |
| > 30 µM | 200 to 400 nM | CCCC[C@H](NC(=O)[C@H](CCC(=O)O)NC(=O)[C@@H](NC(=O)[C@@H](NC(=O)[C@H](CC(C)C)NC(=O)[C@]1(C)CCCC=CCCC[C@](C)(NC(=O)[C@H](CCC(=O)O)NC(=O)[C@H](CC(=O)O)NC(=O)[C@@H](NC(=O)[C@H](Cc2ccccc2)NC(C)=O)[C@@H](C)CC)C(=O)N[C@@H](C)C(=O)N[C@@H](CC(C)C)C(=O)N[C@@H](CCCC)C(=O)N1)C(C)C)[C@@H](C)CC)C(=O)N[C@@H](C)C(=O)N[C@@H](CC(C)C)C(N)=O [SP-138] (Ac-FIDE[S5]AL[Nle][S5]LVIE[Nle]AL-NH2; staple 5-9) | +++ (≤25 but <50: +++) | ++++ (≥30: ++++) |
| > 30 µM | 400 to 700 nM | CC[C@H](C)[C@H](NC(=O)[C@H](CC(N)=O)NC(=O)[C@@H](NC(=O)[C@H](CCC(N)=O)NC(=O)[C@H](CC(=O)O)NC(=O)[C@H](CC(C)C)NC(=O)[C@H](C)NC(=O)[C@H](CCCNC(=N)N)NC(=O)[C@H](CC(C)C)NC(=O)[C@H](CC(C)C)NC(=O)[C@H](CCC(=O)O)NC(=O)[C@H](CCC(=O)O)NC(=O)CNC(=O)[C@H](CCC(N)=O)NC(=O)[C@H](CC(C)C)NC(=O)[C@H](CC(C)C)NC(C)=O)C(C)C)C(=O)N[C@@H](CC(=O)O)C(=O)N[C@@H](CCC(=O)O)C(=O)N[C@@]1(C)CCCC=CCCC[C@@](C)(C(=O)N[C@@H](CC(C)C)C(=O)N[C@H](C(=O)N[C@H](C(=O)N[C@@H](CCC(=O)O)C(=O)N[C@@H](CCSC)C(N)=O)[C@@H](C)CC)C(C)C)NC(=O)[C@H](CCSC)NC(=O)[C@H](CC(C)C)NC(=O)[C@H](C(C)C)NC1=O [SP-318] (Ac-LLQGEELLRALDQVNIDE[S5]VLM[S5]LVIEM-NH2; staple 19-23) | + (<10: +) | ++++ (≥30: ++++) |
| > 30 µM | > 700 nM | CC[C@H](C)[C@H](NC(=O)[C@H](CCCNC(=N)N)NC(=O)[C@H](CC(=O)O)NC(=O)[C@H](CC(C)C)NC(=O)[C@H](C)NC(=O)[C@H](CCSC)NC(=O)[C@]1(C)CCCC=CCCC[C@](C)(NC(=O)[C@H](CCSC)NC(=O)[C@H](CC(C)C)NC(=O)[C@@H](NC(=O)[C@H](CCCCN)NC(=O)[C@H](CCC(=O)O)NC(=O)[C@H](CC(N)=O)NC(=O)[C@@H](NC(=O)[C@H](Cc2ccccc2)NC(C)=O)[C@@H](C)CC)C(C)C)C(=O)N[C@@H](CC(C)C)C(=O)N[C@@H](C(C)C)C(=O)N[C@@H]([C@@H](C)CC)C(=O)N1)C(N)=O [SP-285] (Ac-FINEKVLM[S5]LVI[S5]MALDRI-NH2; staple 9-13) | +++ (≤25 but <50: +++) | ++++ (≥30: ++++) |
| > 30 µM | 400 to 700 nM | CCCC[C@H](NC(=O)[C@H](CCC(=O)O)NC(=O)[C@@H](NC(=O)[C@@H](NC(=O)[C@H](C)NC(=O)[C@]1(C)CCCC=CCCC[C@](C)(NC(=O)[C@H](CCC(=O)O)NC(=O)[C@H](CC(=O)O)NC(=O)[C@@H](NC(=O)[C@H](Cc2ccccc2)NC(C)=O)[C@@H](C)CC)C(=O)N[C@@H](C(C)C)C(=O)N[C@@H](CC(C)C)C(=O)N[C@@H](CCCC)C(=O)N1)C(C)C)[C@@H](C)CC)C(=O)N[C@@H](C)C(=O)N[C@@H](CC(C)C)C(N)=O [SP-142] (Ac-FIDE[S5]VL[Nle][S5]AVIE[Nle]AL-NH2; staple 5-9) | +++ (≤25 but <50: +++) | ++++ (≥30: ++++) |
